Like-named read-outs stand apart in the source and are kept apart here.
Key:
[1] = test system: MCF-7 cells; test: Cell viability assay (CellTiter-Blue) in MCF-7 cells; type: cell-based; details: Homo sapiens, MCF7; 72 h, 20 µM to 1.2 nM; read-out: IC50 (µM) MCF-7 cells, cell viability
Description: (§1) All cell lines were obtained from the American Type Culture Collection (ATCC). MCF-7 and MDA-MB-231 cells were maintained in DMEM containing 10% fetal bovine serum and supplied with 1% penicillin/streptomycin. All cells were maintained in a 5% CO2 atmosphere at 37°C.
(§2) The effects of the lead compounds on cell proliferation were tested in MCF-7 and MDA-MB-231 cells. Cells were grown to 80% confluence, harvested and aliquoted into 384-well plates in a total volume of 45 µl per well. The outer wells were inoculated with sterile water to minimize evaporation from the sample wells. Cells were allowed to attach overnight and 5 µl culture media containing either vehicles or drug were added. Cell proliferation was evaluated using CellTilter-Blue reagent (Promega, China) according to manufacturer’s instructions after 72-h incubation. Fluorescence was measured with an excitation at 530 nm and emission at 590 nm. After background subtraction, cell viability values were normalized to vehicle controls and expressed as percentage of the mean of the relative vehicle controls.
(§3) To further confirm the agonistic activity of hit compounds, MDA-MB-231 and MCF-7 cells were treated with different concentrations of g-Ad or drug (20 µM to 1.2 nM) for 72 hours and cell viability was measured. Thus, four compounds (arctiin, (-)-arctigenin, matairesinol and gramine) that show agonistic activity against adiponectin receptor 1 and four compounds (deoxyschizandrin, taxifoliol, syringing and parthenolide) that show agonistic activity against adiponectin receptor 2 were identified.

[2] = test system: MDA-MB-231 cells; test: Cell viability assay (CellTiter-Blue) in MDA-MB-231 cells; type: cell-based; details: Homo sapiens, MDA-MB-231; 72 h, 20 µM to 1.2 nM; read-out: IC50 (µM) MDA-MB-231 cells, cell viability
Description: as §1, §2, §3

[3] = test system: PPARα phosphorylation (AdipoR2 signaling) in MCF-7 cells; test: Western blot of PPARα phosphorylation in MCF-7 cells; type: cell-based, human; details: MCF-7 cells treated at IC50 concentration for 6 h
Description: Cells were grown to 80% confluence, harvested and aliquoted into 100 mm dishes in serum free media. Cells were allowed to attach overnight and then the serum free media was removed and then cells were washed in PBS twice. Different doses of compounds were prepared in the normal media and added to different dishes for an additional 6 h. Cells were washed 3 times with ice-cold PBS and cell lysates were prepared by scraping cells into lysis buffer A (RIPA buffer, 2 mM dithiothreitol […], 1×Halt protease inhibitor cocktail (Thermo scientific), and 1×Halt phosphatase inhibitor cocktail (Thermo scientific)). The cells were allowed to swell on ice (5 min), after which the homogenate was centrifuged. The supernatants were transferred to fresh tubes and protein concentrations were determined using the Bio-Rad protein assay (Bio-Rad Laboratories, Inc.) per manufacturer’s instructions. Aliquots of the cell lysates were stored at −80°C.
Equal amounts of total protein (50 µg) were subjected to electrophoresis (10% tris-HCl, 1.0 mm gels) and transferred to nitrocellulose membranes. Membranes were blocked in TBS containing 0.05% Tween 20 (TBST) and 5% nonfat milk or 5% BSA for 1 hour at room temperature. Appropriately diluted primary antibodies were incubated in TBST/5% nonfat milk or TBST/5% BSA for 2 h at room temperature or overnight at 4 °C. Membranes were washed in TBST three times for 15 min each. Appropriately diluted secondary antibodies were incubated in superblock blocking buffers (Thermo Scientific) for 1 h at room temperature. Membranes were washed in TBST three times for 15 min. Proteins were detected by Amersham™ ECL plus western blotting detection system (GE healthcare). The following antibodies were used: anti-AdipoR1 M18, anti-AdipoR2 C12 (Santa Cruz Biotechnology, Santa Cruz, CA), anti-p-AMPKα(T172), anti-AMPKα, and anti-β-actin (Cell Signaling, Danvers, MA).
It is well established that adiponectin activates AMPK and p38 MAPK through AdipoR1 or PPARα through AdipoR2 to mediate its downstream signaling cascades, [9], [12], [14]. […] The levels of phosphorylation of AMPK and phosphorylation of PPARα were examined and the relative expression levels of the phospho-protein to the total expression of protein levels were quantified using ImageJ software (NIH) ( Fig. 3 ).
Figure 3 Effects of hit compounds on adiponectin receptor signaling pathways. […] A total 50 µg of cell lysate was loaded to each lane. Western blot was performed follow the protocol in materials and methods section.

[4] = biological target: T1, AdipoR2 (UniProt Q86V24); test: Competitive FP assay, displacement of probe 1 from AdipoR2; type: binding, human; details: 2 µM receptor, 100 nM probe 1, 30 min, 25°C
T1 sequence (Q86V24 1-386): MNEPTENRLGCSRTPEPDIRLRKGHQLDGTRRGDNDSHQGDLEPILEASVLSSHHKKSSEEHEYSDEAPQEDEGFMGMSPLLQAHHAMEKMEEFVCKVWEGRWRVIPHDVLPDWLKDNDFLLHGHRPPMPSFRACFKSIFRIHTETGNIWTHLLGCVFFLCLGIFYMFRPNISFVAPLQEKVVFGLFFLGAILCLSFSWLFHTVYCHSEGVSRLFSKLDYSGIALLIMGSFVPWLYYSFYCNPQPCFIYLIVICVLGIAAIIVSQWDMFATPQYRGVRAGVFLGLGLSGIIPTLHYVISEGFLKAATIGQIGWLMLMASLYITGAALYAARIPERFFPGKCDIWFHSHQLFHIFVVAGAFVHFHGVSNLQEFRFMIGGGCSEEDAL
Description: Unlabeled short peptide 3 was titrated against the FITC-labeled peptide and adiponectin receptor mixture. Plates were incubated at room temperature for up to 3 hours or 30 min at different temperatures. FP values were taken and IC50 values were calculated.
Master mixtures containing fluorescein-labeled probe 1 and adiponectin receptor (AdipoR1 or AdiopR2, 2 µM and probe 1 at 100 nM) in a reaction volume of 19 µl were prepared and loaded to plates. The library compounds (10 µM –0.078 µM, half dilutions) were prepared separately and transferred into the assay plates. The first and last columns of each plate were used as positive and negative control wells. Wells containing the drug only were used as controls to detect auto-fluorescence of the compounds in the total fluorescence assay. After subtraction of the background signal, data was processed and the IC50 values were determined by non-linear least square fitting using SigmaPlot 11.0.
Given that the present study is a screening study, peptide 3 was chosen as the positive control for cost-efficiency purposes.
To optimize the FP assay properly, it was necessary to assess the stability of the FP assay. The conditions for the FP assay were established by testing various parameters including incubation temperature, time, TF values, ΔmP values, and DMSO tolerance. […] In summary, the competitive FP binding assay conditions ideal for identifying adiponectin receptor agonists are: i) 2 µM adiponectin receptor, ii) 100 nM probe 1, iii) 5% final DMSO concentration (v/v), and iv) incubation for 30 min at 25°C before reading the plate.
A pilot screen against the natural product library of 10,000 compounds described above was performed at screening concentrations of 10 µM to 0.078 µM (half serial dilutions) in 5% DMSO (v/v). Controls present in each assay plate consisted of 5% DMSO (negative control) or peptide 3 (positive control).
We screened a library of 10,000 natural compounds for adiponectin agonists. […] 46 compounds that could generate IC50 curves were identified as initial hits.

[5] = primary screen, read-out: IC50 vs AdipoR2 (µM) Primary screen
[6] = validation, read-out: IC50 vs AdipoR2 (µM) Validated

With `COc1cc(C[C@H]2COC(=O)[C@@H]2Cc2ccc(O)c(OC)c2)ccc1O` [Compound 3, Matairesinol] the IC50 [1] was over 10 µM, the IC50 [2] was 1.8 ± 0.6 µM and the “Effect on PPARα phosphorylation level” value [3] was “inhibited”. It also gave an IC50 [4, 5] of over 5 µM and an IC50 [4, 6] of over 5 µM.

For `C=C1C(=O)O[C@H]2[C@H]1CC/C(C)=C/CC[C@@]1(C)O[C@@H]21` [Compound 7, Parthenolide], the IC50 [1] was 2.5 ± 0.4 µM, the IC50 [2] was over 10 µM and the “Effect on PPARα phosphorylation level” value [3] was “increased”. The IC50 [4, 5] was 1.5 µM and the IC50 [4, 6] was 1.2 ± 0.1 µM.

For `COc1cc2c(c(OC)c1OC)-c1c(cc(OC)c(OC)c1OC)C[C@H](C)[C@H](C)C2` [Compound 4, Deoxyschizandrin], the IC50 [1] was 5.5 ± 0.6 µM, the IC50 [2] was over 10 µM and the “Effect on PPARα phosphorylation level” value [3] was “increased”. It also gave an IC50 [4, 5] of 3.5 µM and an IC50 [4, 6] of 3.2 ± 0.7 µM.

In the case of `COc1ccc(C[C@H]2COC(=O)[C@@H]2Cc2ccc(O[C@@H]3O[C@H](CO)[C@@H](O)[C@H](O)[C@H]3O)c(OC)c2)cc1OC` [Compound 1, Arctiin], the IC50 [1] is reported as over 10 µM, the IC50 [2] is reported as 3.2 ± 0.3 µM and the “Effect on PPARα phosphorylation level” value [3] is reported as “inhibited”. The IC50 [4, 5] was over 5 µM and the IC50 [4, 6] was over 5 µM.

`CN(C)Cc1c[nH]c2ccccc12` [Compound 9, Gramine] was tested, and the IC50 [1] was 0.1 ± 0.1 µM, the IC50 [2] was 9.6 ± 0.9 µM and the “Effect on PPARα phosphorylation level” value [3] was “inhibited”. The “Effect on PPARα phosphorylation level” value ([3]; listed as gramine) was “decreased”, the IC50 [4, 5] was 3.6 µM and the IC50 [4, 6] was 3.2 ± 0.2 µM.

From paper PMC3653934, “Identification of Adiponectin Receptor Agonist Utilizing a Fluorescence Polarization Based High Throughput Assay” (PLoS ONE, 2013)
